From patent US10081623B2, “Diamide macrocycles that are FXIa inhibitors” (BRISTOL-MYERS SQUIBB COMPANY, priority 2014, dated 2018)

Target: purified human Factor XIa (Homo sapiens (Human), UniProt P03951)
Assay: Factor XIa assay (chromogenic substrate S-2366 hydrolysis, Ki)
Assay type: biochemical
Conditions: measured at 37° C.
Protocol: The effectiveness of compounds of the present invention as inhibitors of the coagulation Factors XIa, VIIa, IXa, Xa, XIIa, plasma kallikrein or thrombin, can be determined using a relevant purified serine protease, respectively, and an appropriate synthetic substrate. The rate of hydrolysis of the chromogenic or fluorogenic substrate by the relevant serine protease was measured both in the absence and presence of compounds of the present invention. […] A decrease in the rate of absorbance or fluorescence change in the presence of inhibitor is indicative of enzyme inhibition. Such methods are known to one skilled in the art. The results of this assay are expressed as the inhibitory constant, Ki.
Factor XIa determinations were made in 50 mM HEPES buffer at pH 7.4 containing 145 mM NaCl, 5 mM KCl, and 0.1% PEG 8000 (polyethylene glycol; JT Baker or Fisher Scientific). Determinations were made using purified human Factor XIa at a final concentration of 25-200 pM (Haematologic Technologies) and the synthetic substrate S-2366 (pyroGlu-Pro-Arg-pNA; CHROMOGENIX® or AnaSpec) at a concentration of 0.0002-0.001 M.
The Michaelis constant, Km, for substrate hydrolysis by each protease, was determined at 25° C. or 37° C. in the absence of inhibitor. Values of Ki were determined by allowing the protease to react with the substrate in the presence of the inhibitor. […] The following relationships were used to calculate Ki values: (Vmax*S)/(Km+S); (vo−vs)/vs=I/(Ki(1+S/Km)) for a competitive inhibitor with one binding site; or vs/vo=A+(B−A)/(1+(I/IC50)^n); and Ki=IC50/(1+S/Km) for a competitive inhibitor where: […]

purified human Factor XIa, sequence (P03951 388-625): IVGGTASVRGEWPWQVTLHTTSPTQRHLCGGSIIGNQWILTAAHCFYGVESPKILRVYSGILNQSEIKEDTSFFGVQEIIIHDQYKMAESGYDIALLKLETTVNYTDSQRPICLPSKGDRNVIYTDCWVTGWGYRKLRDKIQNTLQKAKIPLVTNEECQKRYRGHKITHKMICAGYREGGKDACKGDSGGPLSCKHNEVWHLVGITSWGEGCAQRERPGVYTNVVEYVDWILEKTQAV
purified human Factor XIa, sequence (P03951 19-387 partner): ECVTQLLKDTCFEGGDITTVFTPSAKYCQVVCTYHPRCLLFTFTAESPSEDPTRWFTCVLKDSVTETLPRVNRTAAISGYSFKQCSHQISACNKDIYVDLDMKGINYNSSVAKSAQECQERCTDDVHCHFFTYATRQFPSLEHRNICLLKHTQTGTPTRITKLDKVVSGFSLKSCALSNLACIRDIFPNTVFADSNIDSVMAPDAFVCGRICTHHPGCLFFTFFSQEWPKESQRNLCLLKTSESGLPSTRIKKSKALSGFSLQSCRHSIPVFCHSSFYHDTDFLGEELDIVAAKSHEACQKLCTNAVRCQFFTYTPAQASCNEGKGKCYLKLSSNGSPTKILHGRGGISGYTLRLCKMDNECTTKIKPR

Compound | Ki [nM]
COC(=O)Nc1ccc2c(c1)NC(=O)CCCCCC(C(=O)NCC1CCN(C(=N)N)CC1)NC2=O (racemic) [Example 5, (±)-Methyl N-(8-{[(1-carbamimidoylpiperidin-4-yl)methyl]carbamoyl}-2,10-dioxo-1,2,3,4,5,6,7,8,9,10-decahydro-1,9-benzodiazacyclododecin-13-yl)carbamate] | 825
N=C(N)N1CCC(CNC(=O)C2CC=CCCC(=O)Nc3ccccc3C(=O)N2)CC1 (racemic) [Example 29, (E/Z)-(±)-N-[(1-Carbamimidoylpiperidin-4-yl)methyl]-2,10-dioxo-1,2,3,4,7,8,9,10-octahydro-1,9-benzodiazacyclododecine-8-carboxamide] | 1400
COC(=O)Nc1ccc2c(c1)NC(=O)CC/C=C/CC(C(=O)NCCc1cc(Cl)ccc1-n1cnnn1)NC2=O (single isomer, unassigned) [Example 25, (E)-Methyl N-[8-({2-[5-chloro-2-(1H-1,2,3,4-tetrazol-1-yl)phenyl]ethyl}carbamoyl)-2,10-dioxo-1,2,3,4,7,8,9,10-octahydro-1,9-benzodiazacyclododecin-13-yl]carbamate] | < 5
COC(=O)Nc1ccc2c(c1)NC(=O)CCC=CCC(C(=O)NCCc1cc(Cl)ccc1-n1cnnn1)NC2=O (racemic) [Example 22, (E/Z)-(±)-Methyl N-[8-({2-[5-chloro-2-(1H-1,2,3,4-tetrazol-1-yl)phenyl]ethyl}carbamoyl)-2,10-dioxo-1,2,3,4,7,8,9,10-octahydro-1,9-benzodiazacyclododecin-13-yl]carbamate] | < 5
COC(=O)Nc1ccc2c(c1)NC(=O)CCCCCC(C(=O)N1CCCC(c3cccc(OC)c3)C1)NC2=O (racemic) [Example 10, (±)-Methyl N-{8-[3-(3-methoxyphenyl)piperidine-1-carbonyl]-2,10-dioxo-1,2,3,4,5,6,7,8,9,10-decahydro-1,9-benzodiazacyclododecin-13-yl}carbamate] | 2620
N=C(N)N1CCC(NC(=O)C2C/C=C/CCC(=O)Nc3ccccc3C(=O)N2)CC1 (racemic) [Example 31, (E)-(±)-N-(1-Carbamimidoylpiperidin-4-yl)-2,10-dioxo-1,2,3,4,7,8,9,10-octahydro-1,9-benzodiazacyclododecine-8-carboxamide] | 811
COC(=O)Nc1ccc2c(c1)NC(=O)CCCCCC(C(=O)NCCC1CCN(C(=N)N)CC1)NC2=O (racemic) [Example 6, (±)-Methyl N-(8-{[2-(1-carbamimidoylpiperidin-4-yl)ethyl]carbamoyl}-2,10-dioxo-1,2,3,4,5,6,7,8,9,10-decahydro-1,9-benzodiazacyclododecin-13-yl)carbamate] | 627
COC(=O)Nc1ccc2c(c1)NC(=O)CC/C=C\CC(C(=O)NCCc1cc(Cl)ccc1-n1cnnn1)NC2=O (single isomer, unassigned) [Example 24, (Z)-Methyl N-[8-({2-[5-chloro-2-(1H-1,2,3,4-tetrazol-1-yl)phenyl]ethyl}carbamoyl)-2,10-dioxo-1,2,3,4,7,8,9,10-octahydro-1,9-benzodiazacyclododecin-13-yl]carbamate] | 153
COC(=O)Nc1ccc2c(c1)NC(=O)CCCCCC(C(=O)NC1Cc3ccccc3NC1=O)NC2=O (racemic) [Example 7, (±)-Methyl N-{2,10-dioxo-8-[(2-oxo-1,2,3,4-tetrahydroquinolin-3-yl)carbamoyl]-1,2,3,4,5,6,7,8,9,10-decahydro-1,9-benzodiazacyclododecin-13-yl}carbamate] | 708
COC(=O)Nc1ccc2c(c1)NC(=O)CCCCCC(C(=O)NCCc1cc(Cl)ccc1-n1cnnn1)NC2=O (single isomer, unassigned) [Example 3, Methyl N-[8-({2-[5-chloro-2-(1H-1,2,3,4-tetrazol-1-yl)phenyl]ethyl}carbamoyl)-2,10-dioxo-1,2,3,4,5,6,7,8,9,10-decahydro-1,9-benzodiazacyclododecin-13-yl]carbamate] | 41.9
COC(=O)Nc1ccc2c(c1)NC(=O)CCCCCC(C(=O)NC1CCN(C(=N)N)CC1)NC2=O (racemic) [Example 4, (±)-Methyl N-{8-[(1-carbamimidoylpiperidin-4-yl)carbamoyl]-2,10-dioxo-1,2,3,4,5,6,7,8,9,10-decahydro-1,9-benzodiazacyclododecin-13-yl}carbamate] | 1490
COC(=O)Nc1ccc2c(c1)NC(=O)CCCCCC(C(=O)NCc1csc3ccc(Cl)cc13)NC2=O (racemic) [Example 8, (±)-Methyl N-(8-{[(5-chloro-1-benzothiophen-3-yl)methyl]carbamoyl}-2,10-dioxo-1,2,3,4,5,6,7,8,9,10-decahydro-1,9-benzodiazacyclododecin-13-yl)carbamate] | 1340
O=C1CCC=CCC(C(=O)NCCc2cc(Cl)ccc2-n2cnnn2)NC(=O)c2ccccc2N1 (racemic) [Example 27, (E/Z)-(±)-N-{2-[5-Chloro-2-(1H-1,2,3,4-tetrazol-1-yl)phenyl]ethyl}-2,10-dioxo-1,2,3,4,7,8,9,10-octahydro-1,9-benzodiazacyclododecine-8-carboxamide] | 39.1
COC(=O)Nc1ccc2c(c1)NC(=O)CCCCCC(C(=O)NCCc1cc(Cl)ccc1-n1cnnn1)NC2=O (single isomer, unassigned) [Example 2, Methyl N-[8-({2-[5-chloro-2-(1H-1,2,3,4-tetrazol-1-yl)phenyl]ethyl}carbamoyl)-2,10-dioxo-1,2,3,4,5,6,7,8,9,10-decahydro-1,9-benzodiazacyclododecin-13-yl]carbamate] | 2180
N=C(N)N1CCC(NC(=O)C2C/C=C\CCC(=O)Nc3ccccc3C(=O)N2)CC1 (racemic) [Example 30, (Z)-(±)-N-(1-Carbamimidoylpiperidin-4-yl)-2,10-dioxo-1,2,3,4,7,8,9,10-octahydro-1,9-benzodiazacyclododecine-8-carboxamide] | 2200
COC(=O)Nc1ccc2c(c1)NC(=O)CCCCCC(C(=O)NCCc1cc(Cl)ccc1-n1cnnn1)NC2=O (racemic) [Example 1, (±)-Methyl N-[8-({2-[5-chloro-2-(1H-1,2,3,4-tetrazol-1-yl)phenyl]ethyl}carbamoyl)-2,10-dioxo-1,2,3,4,5,6,7,8,9,10-decahydro-1,9-benzodiazacyclododecin-13-yl]carbamate] | 17.9
COC(=O)Nc1ccc2c(c1)NC(=O)CC/C=C\CC(C(=O)NCCc1cc(Cl)ccc1-n1cnnn1)NC2=O (single isomer, unassigned) [Example 23, (Z)-Methyl N-[8-({2-[5-chloro-2-(1H-1,2,3,4-tetrazol-1-yl)phenyl]ethyl}carbamoyl)-2,10-dioxo-1,2,3,4,7,8,9,10-octahydro-1,9-benzodiazacyclododecin-13-yl]carbamate] | 157
COC(=O)Nc1ccc2c(c1)NC(=O)CC/C=C/CC(C(=O)NCCc1cc(Cl)ccc1-n1cnnn1)NC2=O (single isomer, unassigned) [Example 26, (E)-Methyl N-[8-({2-[5-chloro-2-(1H-1,2,3,4-tetrazol-1-yl)phenyl]ethyl}carbamoyl)-2,10-dioxo-1,2,3,4,7,8,9,10-octahydro-1,9-benzodiazacyclododecin-13-yl]carbamate] | 64.1
